Experimental data published in the CheMixHub viscosity set.

Assay: xn = mol fraction of the nth substance listed

Cc1cccc(N)c1 + C1CCCCC1
303.15 K, 101.33 kPa
Conditions | viscosity [mPa·s]
x1 = 0.2 | 0.95
x1 = 0.398 | 1.13
x1 = 0.559 | 1.35
x1 = 0.786 | 1.88

C1CCC(C2CCCCC2)CC1 + C1CC[C@H]2CCCC[C@@H]2C1
viscosity [mPa·s], 102 kPa
Conditions | x2 = 0.1185 | x2 = 0.2312 | x2 = 0.3405 | x2 = 0.4451 | x2 = 0.546 | x2 = 0.6433 | x2 = 0.7374 | x2 = 0.828 | x2 = 0.9154
293.15 K | 3.72 | 3.43 | 3.17 | 2.96 | 2.77 | 2.6 | 2.45 | 2.33 | 2.21
303.15 K | 2.95 | 2.74 | 2.56 | 2.4 | 2.27 | 2.15 | 2.03 | 1.94 | 1.85
313.15 K | 2.39 | 2.24 | 2.11 | 1.99 | 1.89 | 1.8 | 1.71 | 1.64 | 1.57
323.15 K | 1.98 | 1.87 | 1.77 | 1.68 | 1.6 | 1.52 | 1.46 | 1.4 | 1.34

Cc1cccc(N)c1 + CC1CCCCC1
303.15 K, 101.33 kPa
Conditions | viscosity [mPa·s]
x1 = 0.204 | 0.79
x1 = 0.4 | 0.96
x1 = 0.6 | 1.25
x1 = 0.8 | 1.75

CCCCOCCOCCOCCCC + CC1COC(=O)O1
viscosity [mPa·s], 101.3 kPa
Conditions | 298.15 K | 308.15 K | 318.15 K
x1 = 0.007 | 2.562 | 2.064 | 1.704
x1 = 0.0158 | 2.574 | 2.086 | 1.721
x1 = 0.059 | 2.676 | 2.174 | 1.735
x1 = 0.1317 | 2.748 | 2.244 | 1.768
x1 = 0.2166 | 2.735 | 2.263 | 1.773
x1 = 0.3183 | 2.7 | 2.187 | 1.729
x1 = 0.356 | 2.674 | 2.161 | 1.712
x1 = 0.3871 | 2.649 | 2.141 | 1.695
x1 = 0.4126 | 2.635 | 2.129 | 1.686
x1 = 0.4929 | 2.579 | 2.086 | 1.649
x1 = 0.5658 | 2.534 | 2.051 | 1.623
x1 = 0.5869 | 2.526 | 2.045 | 1.62
x1 = 0.6616 | 2.487 | 2.013 | 1.595
x1 = 0.7058 | 2.475 | 1.999 | 1.584
x1 = 0.748 | 2.469 | 1.992 | 1.566
x1 = 0.8266 | 2.402 | 1.954 | 1.537
x1 = 0.9183 | 2.323 | 1.899 | 1.489

CN1CCCN2CCCN=C12 + CC(=O)O
100 kPa, x1 = 0.1125
Conditions | viscosity [mPa·s]
294.45 K | 12.9
298.17 K | 11.3
308.1 K | 8.1
323.06 K | 5.4

CCCCCCCCCCCC(=O)O + CC(C)[C@@H]1CC[C@@H](C)C[C@H]1O
viscosity [mPa·s]
Conditions | 293.15 K | 298.15 K | 303.15 K | 308.15 K | 313.15 K | 318.15 K | 323.15 K
100 kPa, x1 = 0.25 | – | 28.1 | 20.91 | 15.93 | 12.4 | 9.84 | 7.94
100 kPa, x2 = 0.33 | 33.06 | 24.42 | 18.63 | 14.51 | 11.45 | 9.293 | 7.61
101 kPa, x1 = 0.333 | 21.81 | – | 12.5 | – | 7.657 | – | 5.112

CCCC[N+](CCCC)(CCCC)CCCC.[Br-] + CC(O)CO
101 kPa, x1 = 0.2
Conditions | viscosity [mPa·s]
298.15 K | 96.3
303.15 K | 71.6
308.15 K | 54.5
313.15 K | 42.1
318.15 K | 33.2
323.15 K | 26.6

CCCCCCCCCCCCCC(=O)OCC + CCC1CCCCC1
viscosity [mPa·s], 100 kPa
Conditions | x2 = 0.0998 | x2 = 0.2 | x2 = 0.3001 | x2 = 0.4002 | x2 = 0.5 | x2 = 0.6 | x2 = 0.6999 | x2 = 0.8 | x2 = 0.9
293.15 K | 4.251 | 3.768 | 3.305 | 2.865 | 2.44 | 2.053 | 1.709 | 1.387 | 1.105
298.15 K | 3.763 | 3.351 | 2.962 | 2.582 | 2.221 | 1.88 | 1.572 | 1.286 | 1.034
303.15 K | 3.361 | 3.011 | 2.672 | 2.34 | 2.022 | 1.726 | 1.45 | 1.199 | 0.972
308.15 K | 3.01 | 2.709 | 2.411 | 2.12 | 1.845 | 1.579 | 1.335 | 1.11 | 0.904
313.15 K | 2.694 | 2.432 | 2.18 | 1.925 | 1.685 | 1.454 | 1.234 | 1.031 | 0.839
318.15 K | 2.461 | 2.227 | 2 | 1.775 | 1.558 | 1.353 | 1.152 | 0.964 | 0.791
323.15 K | 2.242 | 2.032 | 1.829 | 1.628 | 1.436 | 1.251 | 1.071 | 0.9 | 0.736

C=C1CCC2CC1C2(C)C (stereo not drawn) + CCCCCC
298.15 K, 101.33 kPa
Conditions | viscosity [mPa·s]
x2 = 0.0421 | 1.455
x2 = 0.0626 | 1.392
x2 = 0.2031 | 1.055
x2 = 0.2799 | 0.914
x2 = 0.3765 | 0.772
x2 = 0.4939 | 0.634
x2 = 0.5597 | 0.57
x2 = 0.6601 | 0.488
x2 = 0.7454 | 0.427
x2 = 0.8217 | 0.381
x2 = 0.8935 | 0.344
x2 = 0.9595 | 0.312

CCCCCCCCCCCCOC(C)=O + CCCCCC
303.15 K, 101.3 kPa
Conditions | viscosity [mPa·s]
x1 = 0.1919 | 0.5038
x1 = 0.3182 | 0.7197
x1 = 0.4783 | 1.079
x1 = 0.522 | 1.2
x1 = 0.748 | 1.958

Cc1cccc(N)c1 + CCCCCC
viscosity [mPa·s], 101.33 kPa
Conditions | x1 = 0.236 | x1 = 0.396 | x1 = 0.579 | x1 = 0.787
295.15 K | 0.46 | 0.69 | 0.95 | 1.54
305.15 K | 0.39 | 0.55 | 0.77 | 1.25

CCCCCCCCCCCC(=O)O + CCCCCCCCCC(=O)O
100 kPa, x1 = 0.33
Conditions | viscosity [mPa·s]
293.15 K | 12.89
298.15 K | 10.76
303.15 K | 9.199
308.15 K | 7.939
313.15 K | 6.909
318.15 K | 6.059
323.15 K | 5.349

CCCCC(=O)O + CCCCCCCCCCO
viscosity [mPa·s], 100 kPa
Conditions | x1 = 0.0851 | x1 = 0.1742 | x1 = 0.2512 | x1 = 0.3616 | x1 = 0.4363 | x1 = 0.5587 | x1 = 0.6618 | x1 = 0.7474 | x1 = 0.8618 | x1 = 0.9312
293.15 K | 12.76 | 11.18 | 9.99 | 8.58 | 7.71 | 6.4 | 5.35 | 4.5 | 3.44 | 2.83
303.15 K | 8.73 | 7.68 | 6.9 | 5.97 | 5.41 | 4.56 | 3.89 | 3.35 | 2.65 | 2.25
313.15 K | 6.17 | 5.54 | 5.06 | 4.45 | 4.07 | 3.47 | 2.99 | 2.61 | 2.12 | 1.83
323.15 K | 4.49 | 4.09 | 3.79 | 3.38 | 3.12 | 2.7 | 2.37 | 2.1 | 1.75 | 1.55

NCCNCCN + CCCCCCCCCCO
viscosity [mPa·s], 101 kPa
Conditions | 298.15 K | 303.15 K | 308.15 K
x1 = 0.0564 | 12.02 | 9.924 | 8.366
x1 = 0.1003 | 12.52 | 10.34 | 8.775
x1 = 0.1543 | 12.81 | 10.46 | 8.862
x1 = 0.2007 | 12.75 | 10.39 | 8.738
x1 = 0.259 | 12.43 | 10.11 | 8.451
x1 = 0.3083 | 12 | 9.746 | 8.092
x1 = 0.4061 | 10.91 | 8.874 | 7.255
x1 = 0.5034 | 9.787 | 7.869 | 6.538
x1 = 0.6067 | 8.422 | 6.913 | 5.779
x1 = 0.7075 | 7.345 | 6.087 | 5.117
x1 = 0.8062 | 6.406 | 5.281 | 4.552
x1 = 0.852 | 6.037 | 4.932 | 4.298
x1 = 0.9067 | 5.656 | 4.678 | 4.065
x1 = 0.9524 | 5.499 | 4.556 | 3.897

CCCCC(=O)O + CCCCCCCCCO
viscosity [mPa·s], 100 kPa
Conditions | x1 = 0.0827 | x1 = 0.1635 | x1 = 0.2318 | x1 = 0.3519 | x1 = 0.4517 | x1 = 0.5569 | x1 = 0.6472 | x1 = 0.7328 | x1 = 0.8691 | x1 = 0.9502
293.15 K | 10.14 | 8.95 | 8.08 | 6.89 | 6.05 | 5.25 | 4.6 | 4 | 3.09 | 2.56
303.15 K | 6.95 | 6.12 | 5.53 | 4.73 | 4.16 | 3.64 | 3.22 | 2.86 | 2.32 | 2.03
313.15 K | 5.09 | 4.64 | 4.3 | 3.78 | 3.39 | 2.99 | 2.67 | 2.38 | 1.95 | 1.71
323.15 K | 3.76 | 3.47 | 3.26 | 2.92 | 2.66 | 2.39 | 2.17 | 1.96 | 1.64 | 1.46

CCCC[N+](CCCC)(CCCC)CCCC.[Br-] + CCCCCCCCCO
101.3 kPa, x1 = 0.2
Conditions | viscosity [mPa·s]
293.15 K | 56.57
298.15 K | 43.65
303.15 K | 35.27
308.15 K | 28.53
313.15 K | 23.29
318.15 K | 19.13
323.15 K | 15.99

CCCCC(=O)O + CCCCCCCCO
viscosity [mPa·s], 100 kPa
Conditions | x1 = 0.0831 | x1 = 0.1619 | x1 = 0.2381 | x1 = 0.3512 | x1 = 0.4418 | x1 = 0.5665 | x1 = 0.6539 | x1 = 0.7441 | x1 = 0.8551 | x1 = 0.9417
293.15 K | 8.14 | 7.31 | 6.64 | 5.83 | 5.25 | 4.52 | 4.04 | 3.56 | 2.99 | 2.55
303.15 K | 5.85 | 5.4 | 5.01 | 4.47 | 4.06 | 3.51 | 3.14 | 2.78 | 2.36 | 2.06
313.15 K | 4.28 | 3.97 | 3.7 | 3.33 | 3.06 | 2.7 | 2.46 | 2.21 | 1.93 | 1.71
323.15 K | 3.21 | 3.01 | 2.83 | 2.59 | 2.4 | 2.15 | 1.99 | 1.82 | 1.61 | 1.45

NCCNCCN + CCCCCCCCO
viscosity [mPa·s], 101 kPa
Conditions | 298.15 K | 303.15 K | 308.15 K
x1 = 0.0574 | 8.191 | 6.649 | 5.637
x1 = 0.1135 | 8.77 | 7.063 | 5.975
x1 = 0.1584 | 9.103 | 7.248 | 6.111
x1 = 0.2 | 9.198 | 7.3 | 6.14
x1 = 0.2521 | 9.202 | 7.268 | 6.096
x1 = 0.311 | 9.044 | 7.129 | 5.957
x1 = 0.4024 | 8.532 | 6.792 | 5.691
x1 = 0.5076 | 7.72 | 6.264 | 5.244
x1 = 0.6106 | 6.988 | 5.798 | 4.877
x1 = 0.7085 | 6.366 | 5.286 | 4.493
x1 = 0.8064 | 6.017 | 4.915 | 4.228
x1 = 0.8556 | 5.901 | 4.791 | 4.101
x1 = 0.9033 | 5.791 | 4.679 | 3.999
x1 = 0.9524 | 5.699 | 4.584 | 3.889
